Measurements from ChEMBL document CHEMBL3808279, “Sequential one-pot synthesis of bis(indolyl)glyoxylamides: Evaluation of antibacterial and anticancer activities” (Bioorg Med Chem Lett, 2016).
In brackets after ≈: the same amount, converted by molar mass.

What was measured:
Pseudomonas aeruginosa = assay: Antimicrobial activity against Pseudomonas aeruginosa; format: functional
A549 = assay: Cytotoxicity against human A549 cells; format: functional, cell-based
Bacillus subtilis [1] = assay: Antimicrobial activity against Bacillus subtilis; format: functional
P388 = assay: Cytotoxicity against mouse P388 cells; format: functional, cell-based
Escherichia coli [2] = assay: Antimicrobial activity against Escherichia coli; format: functional
[3] = Cytotoxicity against human BxPC3 cells after 48 hrs by MTT assay; format: functional, cell-based; settings: BXPC-3, 48 h
[4] = Cytotoxicity against human C4-2 cells after 48 hrs by MTT assay; format: functional, cell-based; settings: LNCaP C4-2, 48 h
MDA-MB-231 = assay: Cytotoxicity against human MDA-MB-231 cells after 48 hrs by MTT assay; format: functional, cell-based; settings: MDA-MB-231, 48 h
Escherichia coli [5] = assay: Antibacterial activity against Escherichia coli after 18 to 24 hrs by microbroth dilution method; format: functional; settings: for MIC: Escherichia coli
[6] = Cytotoxicity against human PC3 cells after 48 hrs by MTT assay; format: functional, cell-based; settings: PC-3, 48 h
[7] = Cytotoxicity against human HEK293T cells after 48 hrs by MTT assay; format: cell-based; settings: HEK-293T
HeLa = assay: Cytotoxicity against human HeLa cells after 48 hrs by MTT assay; format: functional, cell-based
Pseudomonas putida = assay: Antibacterial activity against Pseudomonas putida after 18 to 24 hrs by microbroth dilution method; format: functional; settings: for MIC: Pseudomonas putida
Klebsiella pneumoniae = assay: Antibacterial activity against Klebsiella pneumoniae after 18 to 24 hrs by microbroth dilution method; format: functional; settings: for MIC: Klebsiella pneumoniae
Bacillus subtilis [8] = assay: Antibacterial activity against Bacillus subtilis after 18 to 24 hrs by microbroth dilution method; format: functional; settings: for MIC: Bacillus subtilis
Staphylococcus aureus = assay: Antibacterial activity against Staphylococcus aureus after 18 to 24 hrs by microbroth dilution method; format: functional; settings: for MIC: Staphylococcus aureus
Micrococcus luteus = assay: Antimicrobial activity against Sarcina lutea; format: functional
Corynebacterium xerosis = assay: Antimicrobial activity against Corynebacterium xerosis; format: functional

Row | Structure (SMILES) | IC50 [3] [µM] | IC50 [4] [µM] | IC50 (MDA-MB-231) [µM] | inhibition zone (IZ) (Escherichia coli [5]) [mm] | MIC (Escherichia coli [5]) [µg/mL] | IC50 [6] [µM] | IC50 [7] [µM] | IC50 (HeLa) [µM] | inhibition zone (IZ) (Pseudomonas putida) [mm] | MIC (Pseudomonas putida) [µg/mL] | inhibition zone (IZ) (Klebsiella pneumoniae) [mm] | inhibition zone (IZ) (Bacillus subtilis [8]) [mm] | inhibition zone (IZ) (Staphylococcus aureus) [mm] | MIC (Klebsiella pneumoniae) [µg/mL] | MIC (Bacillus subtilis [8]) [µg/mL] | MIC (Staphylococcus aureus) [µg/mL] | further results
1 | CC(c1c[nH]c(N)n1)c1ccc(O)c2[nH]cc(-c3cnc(-c4c[nH]c5cc(Br)ccc45)c(O)n3)c12.O=C(O)C(F)(F)F (stereo not drawn) [DRAGMACIDINS] |  |  |  |  |  |  |  |  |  |  |  |  |  |  |  |  | MIC (Pseudomonas aeruginosa): 62.5 µg/mL; IC50 (A549): 4.5 µg/mL; MIC (Bacillus subtilis [1]): 3.1 µg/mL; IC50 (P388): 1.4 µg/mL; MIC (Escherichia coli [2]): 15.6 µg/mL
2 | COc1ccc2c(c1)c(C(=O)C(=O)NCCc1c[nH]c3ccccc13)cn2Cc1ccc(Cl)cc1 | > 100 | > 100 | > 100 | 13 | > 100 | > 100 | > 100 | > 100 | 15 | 50 (≈ 103 µM) |  |  |  |  |  |  | 
3 | O=C(N[C@H](CO)[C@H](O)c1ccc([N+](=O)[O-])cc1)C(Cl)Cl [CHLORAMPHENICOL] |  |  |  | 22 |  |  |  |  | 21 |  | 20 | 22 | 21 |  |  |  | 
4 | COc1ccc2c(C(=O)C(=O)NCCc3c[nH]c4ccccc34)cn(Cc3ccc(Cl)cc3)c2c1 | > 100 | > 100 | > 100 | 15 | 50 (≈ 103 µM) | > 100 | > 100 | > 100 | 16 | 50 (≈ 103 µM) | 15 |  |  | > 50 |  |  | 
5 | O=C1N=C(C(=O)c2c[nH]c3ccc(Br)cc23)N/C1=C\c1c[nH]c2ccccc12 |  |  |  |  |  |  |  |  |  |  |  |  |  |  |  |  | MIC (Micrococcus luteus): 16 µg/mL (≈ 36.9 µM); MIC (Corynebacterium xerosis): 16 µg/mL (≈ 36.9 µM)
6 | O=C(NCCc1c[nH]c2ccccc12)C(=O)c1cn(Cc2ccc(F)cc2)c2ccccc12 | > 100 | > 100 | > 100 | 15 | 100 (≈ 228 µM) | > 100 | > 100 | > 100 | 15 | 100 (≈ 228 µM) | 13 | 12 | 14 | > 100 | > 100 | > 100 | 
7 | COc1ccc2[nH]cc(C(=O)C(=O)CCCc3c[nH]c4ccccc34)c2c1 | > 100 | > 100 | > 100 | 15 | 100 (≈ 277 µM) | > 100 | > 100 | > 100 | 15 | 100 (≈ 277 µM) | 15 |  |  | 50 (≈ 139 µM) |  |  | 
8 | O=C(NCCc1c[nH]c2ccccc12)C(=O)c1c[nH]c2ccc(Br)cc12 | > 100 | > 100 | > 100 | 16 | 50 (≈ 122 µM) | > 100 | > 100 | > 100 | 14 | 100 (≈ 244 µM) | 15 | 14 | 15 | 100 (≈ 244 µM) | 100 (≈ 244 µM) | > 100 | 
9 | COc1ccc2c(C(=O)C(=O)NCCc3c[nH]c4ccccc34)c[nH]c2c1 | > 100 | > 100 | > 100 | 14 | > 50 | > 100 | > 100 | > 100 | 15 | > 50 | 15 | 15 | 14 | 100 (≈ 277 µM) | > 100 | 100 (≈ 277 µM) | 
10 | COc1cccc2c1C(=O)c1c(O)c3c(c(O)c1C2=O)C[C@@](O)(C(=O)CO)C[C@@H]3O[C@H]1C[C@H](N)[C@H](O)[C@H](C)O1 [DOXORUBICIN] | 13 | 1.85 |  |  |  | 9.5 | 3.1 |  |  |  |  |  |  |  |  |  | 
